Measured values as given in ChEMBL document CHEMBL1201862, “PubChem BioAssay data set” (2004).
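Where inhibition never reached the appropriate level, the endpoint shown equals the highest concentration tested. Otherwise, values were interpolated linearly from a five-concentration, 48-hour dose response in 96-well plates. Here, GI50 denotes the concentration required for 50% inhibition of growth.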 The source made the active and inactive calls. Rule as the data show it: active = GI50 up to about 1.1 µM and inactive = higher.

Columns and labels:
Assay in all cases: inhibition of tumour cell growth, NCI panel, 48 h
SK-OV-3 = test system: SK-OV-3
UACC-62 = test system: UACC-62
CCRF-CEM = test system: CCRF-CEM
OVCAR-4 = test system: OVCAR-4
HCT-116 = test system: HCT-116
HL-60 = test system: HL-60
UACC-257 = test system: UACC-257
XF498 = test system: XF498
SR = test system: SR
U-251 = test system: U-251
MOLT-4 = test system: MOLT-4
UO-31 = test system: UO-31
SK-MEL-2 = test system: SK-MEL-2
HT-29 = test system: HT-29
HOP-92 = test system: HOP-92
RXF 393 = test system: RXF 393
LOX IMVI = test system: LOX IMVI
M14 = test system: M14
M19-MEL = test system: M19-MEL
K562 = test system: K562
SNB-78 = test system: SNB-78
KM-20L2 = test system: KM-20L2
SF-295 = test system: SF-295
EKVX = test system: EKVX
LXFL 529 = test system: LXFL 529
ACHN = test system: ACHN
SNB-75 = test system: SNB-75
DLD-1 = test system: DLD-1
OVCAR-8 = test system: OVCAR-8
A498 = test system: A498
SK-MEL-28 = test system: SK-MEL-28
HCC 2998 = test system: HCC 2998
OVCAR-5 = test system: OVCAR-5
OVCAR-3 = test system: OVCAR-3
NCI-H23 = test system: NCI-H23
Malme-3M = test system: Malme-3M
RPMI-8226 = test system: RPMI-8226
SK-MEL-5 = test system: SK-MEL-5
COLO 205 = test system: COLO 205
SN12C = test system: SN12C
DMS-273 = test system: DMS-273
A549 = test system: A549
IGROV-1 = test system: IGROV-1
SNB-19 = test system: SNB-19
HOP-62 = test system: HOP-62
NCI-H226 = test system: NCI-H226
HCT-15 = test system: HCT-15
HOP-18 = test system: HOP-18
NCI-H460 = test system: NCI-H460
786-0 = test system: 786-0
SF-268 = test system: SF-268
SF-539 = test system: SF-539
CAKI-1 = test system: CAKI-1
TK-10 = test system: TK-10
KM12 = test system: KM12
NCI-H522 = test system: NCI-H522
MDA-MB-231 = test system: MDA-MB-231
DMS-114 = test system: DMS-114
DU-145 = test system: DU-145
BT-549 = test system: BT-549
T47D = test system: T47D
MDA-N = test system: MDA-N
SW-620 = test system: SW-620
PC-3 = test system: PC-3
NCI/ADR-RES = test system: NCI/ADR-RES
Hs-578T = test system: Hs-578T
MDA-MB-435 = test system: MDA-MB-435

CCOC(=O)C1=C(OC(OCC)C([Se]c2ccccc2)C(C)C)CCC1 (configuration not stated)
GI50 (SK-OV-3): 81700 nM (inactive) | GI50 (UACC-62): 14200 nM (inactive) | GI50 (CCRF-CEM): 3440 nM (inactive) | GI50 (OVCAR-4): 16100 nM (inactive) | GI50 (HCT-116): 12500 nM (inactive) | GI50 (HL-60): 3240 nM (inactive) | GI50 (UACC-257): 23200 nM (inactive) | GI50 (XF498): 11600 nM (inactive) | GI50 (SR): 3200 nM (inactive) | GI50 (U-251): 4290 nM (inactive) | GI50 (MOLT-4): 14700 nM (inactive) | GI50 (UO-31): 24400 nM (inactive) | GI50 (SK-MEL-2): 15100 nM (inactive) | GI50 (HT-29): 19100 nM (inactive) | GI50 (HOP-92): 27500 nM (inactive) | GI50 (RXF 393): 9460 nM (inactive) | GI50 (LOX IMVI): 2310 nM (inactive) | GI50 (M14): 15800 nM (inactive) | GI50 (M19-MEL): 15300 nM (inactive) | GI50 (K562): 37000 nM (inactive) | GI50 (SNB-78): 12800 nM (inactive) | GI50 (KM-20L2): 28800 nM (inactive) | GI50 (SF-295): 13400 nM (inactive) | GI50 (EKVX): 18800 nM (inactive) | GI50 (LXFL 529): 12200 nM (inactive) | GI50 (ACHN): 23400 nM (inactive) | GI50 (SNB-75): 23000 nM (inactive) | GI50 (DLD-1): 14700 nM (inactive) | GI50 (OVCAR-8): 14100 nM (inactive) | GI50 (A498): 26500 nM (inactive) | GI50 (SK-MEL-28): 16400 nM (inactive) | GI50 (HCC 2998): 36800 nM (inactive) | GI50 (OVCAR-5): 22300 nM (inactive) | GI50 (OVCAR-3): 15100 nM (inactive) | GI50 (NCI-H23): 8280 nM (inactive) | GI50 (Malme-3M): 26400 nM (inactive) | GI50 (RPMI-8226): 10100 nM (inactive) | GI50 (SK-MEL-5): 13000 nM (inactive) | GI50 (COLO 205): 14700 nM (inactive) | GI50 (SN12C): 10400 nM (inactive) | GI50 (DMS-273): 5520 nM (inactive) | GI50 (A549): 28800 nM (inactive) | GI50 (IGROV-1): 18300 nM (inactive) | GI50 (SNB-19): 27200 nM (inactive) | GI50 (HOP-62): 68700 nM (inactive) | GI50 (NCI-H226): 13700 nM (inactive) | GI50 (HCT-15): 15200 nM | GI50 (HOP-18): 16200 nM (inactive) | GI50 (NCI-H460): 16900 nM (inactive) | GI50 (786-0): 6820 nM (inactive) | GI50 (SF-268): 4730 nM (inactive) | GI50 (SF-539): 12300 nM (inactive) | GI50 (CAKI-1): 43500 nM (inactive) | GI50 (TK-10): 47000 nM (inactive) | GI50 (KM12): 41100 nM (inactive) | GI50 (NCI-H522): 7100 nM (inactive)

Nc1nc(N)c2c(Cl)c(CNc3ccc(Cl)c(Cl)c3)ccc2n1
GI50 (SK-OV-3): 574 nM (active) | GI50 (UACC-62): < 10 nM (active) | GI50 (CCRF-CEM): < 10 nM (active) | GI50 (OVCAR-4): 871 nM (active) | GI50 (MDA-MB-231): 1520 nM (inactive) | GI50 (HCT-116): < 10 nM (active) | GI50 (HL-60): < 10 nM (active) | GI50 (DMS-114): < 10 nM (active) | GI50 (UACC-257): 138 nM (active) | GI50 (XF498): 2070 nM (inactive) | GI50 (SR): < 37.1 nM (active) | GI50 (U-251): < 21.5 nM (active) | GI50 (MOLT-4): < 53.6 nM (active) | GI50 (UO-31): 29.4 nM (active) | GI50 (SK-MEL-2): 3110 nM (inactive) | GI50 (HT-29): < 10 nM (active) | GI50 (HOP-92): 445 nM (active) | GI50 (RXF 393): 337 nM (active) | GI50 (DU-145): 150 nM (active) | GI50 (LOX IMVI): < 10 nM (active) | GI50 (M14): < 10 nM (active) | GI50 (M19-MEL): 23.8 nM (active) | GI50 (K562): < 10 nM (active) | GI50 (SNB-78): 7190 nM (inactive) | GI50 (KM-20L2): 225 nM (active) | GI50 (SF-295): < 10 nM (active) | GI50 (EKVX): 2870 nM (inactive) | GI50 (LXFL 529): < 27.8 nM (active) | GI50 (ACHN): < 10 nM (active) | GI50 (SNB-75): 2640 nM (inactive) | GI50 (DLD-1): < 10 nM (active) | GI50 (OVCAR-8): < 10 nM (active) | GI50 (A498): 68.2 nM (active) | GI50 (BT-549): 4490 nM (inactive) | GI50 (SK-MEL-28): 780 nM (active) | GI50 (HCC 2998): 14.6 nM (active) | GI50 (OVCAR-5): < 10 nM (active) | GI50 (OVCAR-3): 168 nM (active) | GI50 (NCI-H23): 10.2 nM (active) | GI50 (Malme-3M): 471 nM (active) | GI50 (T47D): 6850 nM (inactive) | GI50 (MDA-N): < 10 nM (active) | GI50 (RPMI-8226): 181 nM (active) | GI50 (SK-MEL-5): < 10 nM (active) | GI50 (COLO 205): 239 nM (active) | GI50 (SN12C): < 104 nM (active) | GI50 (DMS-273): < 25.9 nM (active) | GI50 (A549): < 10 nM (active) | GI50 (IGROV-1): < 10 nM (active) | GI50 (SW-620): < 10 nM (active) | GI50 (PC-3): < 10 nM (active) | GI50 (NCI/ADR-RES): < 10 nM (active) | GI50 (SNB-19): 486 nM (active) | GI50 (HOP-62): 17.1 nM (active) | GI50 (NCI-H226): 12900 nM (inactive) | GI50 (HCT-15): < 10 nM | GI50 (HOP-18): 716 nM (active) | GI50 (Hs-578T): 1600 nM (inactive) | GI50 (NCI-H460): < 10 nM (active) | GI50 (786-0): < 10 nM (active) | GI50 (SF-268): 11.6 nM (active) | GI50 (SF-539): 16 nM (active) | GI50 (TK-10): 256 nM (active) | GI50 (KM12): 23.8 nM (active) | GI50 (NCI-H522): 49.9 nM (active) | GI50 (MDA-MB-435): < 10 nM (active)
